# In PubChem BioAssay (NCI):
# “And” between values parts separate entries of the source, which are not always exact repeats. Equal entries are not always repeated.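 Cultured in 96-well plates, cells were exposed to test compound for 48 hours across five concentrations. GI50 = concentration required for 50% inhibition of growth. TGI: total growth inhibition.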
# What was measured:
# Assay in all cases: NCI-60 cell line screen, 48 h
# CCRF-CEM leukemia = test system: CCRF-CEM leukemia
# NCI-H23 lung = test system: NCI-H23 lung
# SR leukemia = test system: SR leukemia
# SK-OV-3 ovarian = test system: SK-OV-3 ovarian
# NCI-H522 lung = test system: NCI-H522 lung
# K-562 leukemia = test system: K-562 leukemia
# LOX IMVI melanoma = test system: LOX IMVI melanoma
# U251 CNS = test system: U251 CNS
SMILES,GI50 (CCRF-CEM leukemia),TGI (CCRF-CEM leukemia),GI50 (NCI-H23 lung),TGI (NCI-H23 lung),GI50 (SR leukemia),TGI (SR leukemia),GI50 (SK-OV-3 ovarian),TGI (SK-OV-3 ovarian),GI50 (NCI-H522 lung),TGI (NCI-H522 lung),GI50 (K-562 leukemia),TGI (K-562 leukemia),GI50 (LOX IMVI melanoma),TGI (LOX IMVI melanoma),GI50 (U251 CNS),TGI (U251 CNS)
C#C[C@]1(O)CC[C@H]2[C@@H]3CC=C4c5nc(N)sc5CC[C@]4(C)[C@H]3CC[C@@]21C,2.79 µM,14.9 µM,4.38 µM,24.3 µM,2.31 µM,9.18 µM,3.5 µM,10.5 µM,2.52 µM,7.94 µM,2.63 µM,74.5 µM,1.92 µM,4.04 µM,2.47 µM,16.4 µM
NC(=O)/C(=C/n1cnc(-c2cc(C(F)(F)F)cc(C(F)(F)F)c2)n1)c1cncnc1,0.231 µM,14.4 µM,0.307 µM,9.18 µM,0.0563 µM,> 34.4 µM,1.57 µM,43.1 µM,0.331 µM,4.33 µM,0.144 µM,38.7 µM,0.303 µM,4.36 µM,0.301 µM,12.3 µM
CC(C)OP(=O)(O)c1ncc(-c2ccc(C(F)(F)F)cc2)c(NC2CCCCCC2)n1,> 100 µM,> 100 µM,> 100 µM,> 100 µM,–,–,> 100 µM,> 100 µM,38.5 µM,> 100 µM,55 µM,> 100 µM,–,–,77.9 µM,> 100 µM
CCOc1ccc2cc(-c3nn(CC4CCNCC4)c4ncnc(N)c34)ccc2c1,13.9 µM,34.2 µM,13.4 µM,31.9 µM,4.23 µM,19.6 µM,17.3 µM,39.3 µM,15.8 µM,30.4 µM,4.69 µM,17.1 µM,26.8 µM,> 100 µM,13.7 µM,29.5 µM
CC1OC(OC2C(O)C(O)C(O)C(O)C2O)C(N)CC1N=C(N)C(=O)O (stereo not drawn),–,> 100 µM,–,> 100 µM,–,> 100 µM,–,> 100 µM,–,> 100 µM,–,> 100 µM,–,> 100 µM,–,> 100 µM
C=C1C[C@@H]2O[C@H]3[C@H]4[C@@H](CC[C@@](C)(OC(=O)CCC)[C@H]42)[C@@H](C)C(=O)O[C@@]3(C)CC[C@H]1OO,4.81 µM,14.8 µM,16.9 µM,30.6 µM,5.48 µM,18.4 µM,> 100 µM,> 100 µM,18.2 µM,36.5 µM,1.79 µM,3.28 µM,15.4 µM,28.7 µM,16.5 µM,30.1 µM
COc1ccc(C(O)c2cc3c(N)c(C(=O)Nc4cccc(Br)c4C)sc3nc2C)cc1 (stereo not drawn),0.139 µM,> 33.3 µM,0.276 µM,> 33.3 µM,0.125 µM,> 33.3 µM,0.251 µM,> 33.3 µM,0.157 µM,–,0.14 µM,> 33.3 µM,0.187 µM,12.4 µM,0.164 µM,8.61 µM
O=[N+]([O-])/C=C/c1ccc(Cl)cc1[N+](=O)[O-],1.12 µM,8.85 µM,2.86 µM,10.6 µM,1.68 µM,> 100 µM,12.1 µM,24.5 µM,1.5 µM,3.3 µM,3.08 µM,24.1 µM,–,–,1.95 µM,3.67 µM
CC1(C)C2CCC13C(=O)C1OC3(C2)C2C(=O)c3c(ccc4c3ccc3ccccc34)C(=O)C12 (stereo not drawn),21.5 µM,> 62.9 µM,> 48.4 µM,> 81.5 µM,1.86 µM,51 µM,> 100 µM,> 100 µM,> 62.1 µM,> 100 µM,1.12 µM,82.1 µM,50.9 µM,> 100 µM,> 64.8 µM,> 100 µM
CCOC(=O)/C(=C\c1ccc2ccccc2c1)P(=O)(OCC)OCC,1.89 µM,6.51 µM,1.95 µM,4.78 µM,1.69 µM,8.19 µM,8.84 µM,20.9 µM,1.52 µM,3.35 µM,2.73 µM,50.8 µM,1.58 µM,3.08 µM,2.64 µM,7.86 µM
CCOC(=O)c1c(CN2CCN(C)CC2)nc2ccc(Cl)cc2c1-c1ccccc1,7.17 µM,28.9 µM,14.5 µM,30.1 µM,1.93 µM,4.78 µM,12.8 µM,25.8 µM,11.7 µM,25.3 µM,1.86 µM,4.66 µM,4.52 µM,16.1 µM,8.26 µM,23 µM
O=c1cccc(Cl)[nH]1,–,> 100 µM,–,> 100 µM,–,> 100 µM,–,> 100 µM,–,> 100 µM,–,> 100 µM,–,> 100 µM,–,> 100 µM
COc1cc2cc(Oc3cccc(NC(=O)Nc4cc(C(F)(F)F)cc(C(F)(F)F)c4)c3)c(C)nc2cc1OC,0.641 µM,3.47 µM,0.639 µM,3.55 µM,1.62 µM,5.97 µM,1.71 µM,3.47 µM,1.25 µM,2.95 µM,0.573 µM,2.53 µM,1.44 µM,2.96 µM,1.08 µM,2.47 µM
CC(=O)Oc1cc2cnc3c4cc(OC(C)=O)c(OC(C)=O)cc4ccc3c2cc1OC(C)=O,0.608 µM,> 100 µM,2.54 µM,> 100 µM,0.629 µM,> 100 µM,4.32 µM,> 100 µM,0.392 µM,4.56 µM,2.08 µM,> 100 µM,1.23 µM,> 100 µM,0.548 µM,10.6 µM
COc1cc2ncnc(Oc3cccc(NC(=O)Nc4cc(C(C)(C)C(F)(F)F)on4)c3)c2cc1OC,3.06 µM and 3.26 µM,> 100 µM,1.28 µM and 1.43 µM,11.7 µM and > 10 µM,2.95 µM and 2.6 µM,11.9 µM and > 10 µM,0.612 µM and 0.962 µM,3.52 µM and 4.82 µM,0.37 µM and 0.407 µM,12.6 µM and > 7.06 µM,0.0153 µM and 0.0146 µM,25.9 µM and > 10 µM,0.319 µM and 0.421 µM,1.54 µM and 1.81 µM,2.98 µM and 4.09 µM,14.1 µM and > 10 µM
CN(C)c1ccc(C(O)C2=CC(=O)c3ccccc3C2=O)cc1 (stereo not drawn),–,–,27.2 µM,97.5 µM,1.88 µM,4.49 µM,3.07 µM,15.5 µM,2.82 µM,9.2 µM,–,–,–,–,1.74 µM,> 100 µM
N#Cc1cc(S(=O)(=O)Nc2nc3cc(Cl)ccc3o2)c(SCc2ccccc2)cc1Cl,14.1 µM,27.1 µM,15.6 µM,28.9 µM,15.2 µM,28.5 µM,–,–,11.6 µM,25 µM,14.3 µM,27.4 µM,13.5 µM,26.3 µM,13.4 µM,26.2 µM

SMILES,GI50 (CCRF-CEM leukemia),TGI (CCRF-CEM leukemia),GI50 (NCI-H23 lung),TGI (NCI-H23 lung),GI50 (SR leukemia),TGI (SR leukemia),GI50 (SK-OV-3 ovarian),TGI (SK-OV-3 ovarian),GI50 (NCI-H522 lung),TGI (NCI-H522 lung),GI50 (K-562 leukemia),TGI (K-562 leukemia),GI50 (LOX IMVI melanoma),TGI (LOX IMVI melanoma),GI50 (U251 CNS),TGI (U251 CNS)
CCCCCCCCCCCCCCCC[n+]1ccccc1,0.281 µM,1.33 µM,0.295 µM,1.43 µM,–,–,1.03 µM and 0.692 µM,2.5 µM and 2.72 µM,0.226 µM,0.947 µM,0.278 µM,1.64 µM,0.242 µM,1.09 µM,0.326 µM and 0.535 µM,1.36 µM and 1.92 µM
COc1ccc(-c2cc(/C=C/C(=O)c3ccc(N)cc3)[nH]n2)cc1,1.32 µM,4.91 µM,3.22 µM,13.1 µM,0.799 µM,6.09 µM,4.72 µM,18 µM,1.21 µM,2.91 µM,1.42 µM,11.6 µM,–,–,1.24 µM,2.57 µM
COc1cc(/C=C2\SC(N3CCCCC3)=NC2=O)ccc1OCCCCCCOc1ccc(/C=C2\SC(N3CCCCC3)=NC2=O)cc1OC,–,–,12.6 µM,40.9 µM,9.16 µM,65.8 µM,4.91 µM,17.4 µM,3.18 µM,22 µM,–,–,8.35 µM,35.7 µM,4.61 µM,16.1 µM
Cc1ccc(C2CC(c3ccc(Nc4ccnc5cc(Cl)ccc45)cc3)=NN2C=O)cc1 (stereo not drawn),2.25 µM,> 100 µM,6.93 µM,> 100 µM,3.18 µM,10.2 µM,> 100 µM,> 100 µM,–,–,–,–,4.11 µM,> 100 µM,> 100 µM,> 100 µM
Cn1cnnc1[S-].[Au+].c1ccc([PH+](c2ccccc2)c2ccccc2)cc1,–,–,–,–,–,–,–,–,–,–,–,–,1.35 µM,2.71 µM,–,–
OCCN(CO)CO,–,–,–,> 100 µM,–,–,–,> 100 µM,–,> 100 µM,–,> 100 µM,–,–,–,> 100 µM
CCn1c(-c2nonc2N)nc2cnc(Oc3cccc(NC(=O)c4ccc(N(C)C)cc4)c3)cc21,1.82 µM,> 25 µM,> 25 µM,> 25 µM,–,–,> 13.7 µM,> 25 µM,> 13.8 µM,> 25 µM,> 25 µM,> 25 µM,> 25 µM,> 25 µM,> 25 µM,> 25 µM
COc1ccc(-c2csc(Nc3cccc(-c4csc(C)n4)c3)n2)cc1,–,–,0.931 µM,10.1 µM,0.0878 µM,0.27 µM,2.17 µM,> 50 µM,1.23 µM,> 16.4 µM,0.137 µM,0.507 µM,0.389 µM,11.8 µM,0.783 µM,> 27.6 µM
COc1ccc(-c2c(N)noc2-c2cc(OC)c3c(c2)OCCO3)cc1,0.0166 µM,1.74 µM,< 0.014 µM,–,< 0.01 µM,> 52.4 µM,< 0.0121 µM,1.01 µM,–,–,< 0.01 µM,> 100 µM,0.0451 µM,24 µM,< 0.0119 µM,–
COc1cc(-c2nn(-c3cccc(NC(=O)CCN4CCN(c5ccccc5)CC4)c3)cc2-c2ccncc2)ccc1Cl,3.38 µM,> 100 µM,3.09 µM,> 100 µM,–,–,4.27 µM,> 100 µM,2.43 µM,9.69 µM,–,–,2.02 µM,5.47 µM,3.13 µM,> 100 µM
CC(=O)OCC1OC(n2c3c(cc(C#N)c2=S)CCCC3)C(OC(C)=O)C(OC(C)=O)C1OC(C)=O (stereo not drawn),43.2 µM and > 100 µM,> 100 µM,–,> 100 µM,32.4 µM and > 100 µM,> 100 µM,–,–,–,> 100 µM and 98.7 µM,24.1 µM and > 100 µM,68 µM and > 100 µM,20.7 µM and > 100 µM,57.3 µM and > 100 µM,> 100 µM and 21.9 µM,> 100 µM and 53 µM
Clc1ccc(CN2CCCN(Cc3ccc(Cl)cc3)C2c2cc3ccccc3c3ccccc23)cc1,–,–,–,> 100 µM,–,> 100 µM,–,> 100 µM,–,51 µM,–,–,–,> 100 µM,–,> 100 µM
O=C(O)CCCCC1CCSS1 (stereo not drawn),–,> 100 µM,–,> 100 µM,–,> 100 µM,–,–,–,> 100 µM,–,> 100 µM,–,> 100 µM,–,> 100 µM
COc1cc(-c2nn(-c3cccc(NC(=O)CCNc4ccc(N5CCOCC5)cc4)c3)cc2-c2ccncc2)ccc1Cl,2.95 µM,> 100 µM,2.68 µM,20.6 µM,2.13 µM,9.09 µM,5.02 µM,> 100 µM,2.52 µM,9.82 µM,–,–,2.6 µM,13 µM,2.52 µM,63 µM
Nc1ccccc1C#Cc1ccccc1C#Cc1cccs1,19.9 µM,70.1 µM,17.2 µM,34.1 µM,–,–,32.7 µM,> 100 µM,18.4 µM,49.1 µM,15.5 µM,40.7 µM,14 µM,27.5 µM,13.6 µM,27.3 µM
COc1cc2c3c(n(CCCNCCCNCCCN)c(=O)c2cc1OC)-c1cc2c(cc1C3=O)OCO2,35.1 µM,> 100 µM,13.5 µM,> 100 µM,13.6 µM,89 µM,> 100 µM,> 100 µM,> 100 µM,> 100 µM,–,–,32.4 µM,> 100 µM,46.2 µM,> 100 µM
OCC(O)C(O)C(O)C(O)c1nnc2c(-c3ccccc3)nc3ccccc3n12 (stereo not drawn),> 100 µM,> 100 µM,> 100 µM,> 100 µM,–,–,> 100 µM,> 100 µM,64.1 µM,> 100 µM,78.3 µM,> 100 µM,51.5 µM,> 100 µM,> 100 µM,> 100 µM
